Here are results for two compounds from patent US9987276B2 (Celgene CAR LLC, priority 2008, dated 2018).

Entries after “also recorded” stand apart in the source; their conditions may differ. Where only a bound is given, the exact number is not on record here.

The target in one experiment is BMX (Homo sapiens (Human), UniProt P51813). As to the kind of experiment: Omnia assay for potency assessment against active forms of BMX kinase. In kind it is biochemical. As to conditions: [BMX]=2.5 nM, [ATP]=100 μM, [Y5-Sox]=7.5 μM; read-out: BMX Inhibition.
BMX, sequence (P51813 whole entry): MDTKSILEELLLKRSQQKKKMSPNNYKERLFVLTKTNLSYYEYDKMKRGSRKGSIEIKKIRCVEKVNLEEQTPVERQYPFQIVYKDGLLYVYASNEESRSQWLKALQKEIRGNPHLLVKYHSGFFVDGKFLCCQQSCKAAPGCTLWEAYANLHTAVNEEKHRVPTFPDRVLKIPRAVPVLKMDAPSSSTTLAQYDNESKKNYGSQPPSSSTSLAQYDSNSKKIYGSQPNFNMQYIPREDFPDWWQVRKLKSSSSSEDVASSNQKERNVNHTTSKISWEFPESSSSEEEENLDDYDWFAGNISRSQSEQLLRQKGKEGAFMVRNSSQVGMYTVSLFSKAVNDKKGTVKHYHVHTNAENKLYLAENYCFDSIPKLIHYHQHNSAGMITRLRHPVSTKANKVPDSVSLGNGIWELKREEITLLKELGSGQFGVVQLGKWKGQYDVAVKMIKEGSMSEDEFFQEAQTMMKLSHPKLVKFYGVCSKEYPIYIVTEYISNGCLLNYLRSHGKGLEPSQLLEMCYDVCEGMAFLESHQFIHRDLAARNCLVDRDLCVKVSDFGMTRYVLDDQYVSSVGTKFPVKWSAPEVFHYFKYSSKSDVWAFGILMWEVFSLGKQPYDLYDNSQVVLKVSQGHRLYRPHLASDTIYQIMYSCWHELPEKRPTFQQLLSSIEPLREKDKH
Experiment [1] addresses T1, BTK (Homo sapiens (Human), UniProt Q06187). As to the kind of experiment: BTK Ramos cellular assay (PLCγ2 phosphorylation). The format is cell-based. The following applies: Ramos cells, 1 hour compound, anti-IgM stimulation, p-PLCγ2; read-out: BTK Inhibition (IC50), BTK Ramos cellular inhibition.
Experiment [2] is described as follows: Collagen antibody induced arthritis model. The following applies: Dose 30 mg/kg. In kind it is in vivo. How it is done:
On day 0 baseline footpad measurements were made and animals were distributed to the experimental groups in such a way as to generate groups with no significant differences between the groups. Each animal was then inoculated intravenously with 2 mg Arthritomab monoclonal antibody cocktail. Treatment with test agents began at this time. On day 6, each animal was injected intraperitoneally with 50 μg LPS in 200 μl of sterile PBS. Footpad measurements and clinical scoring were conducted on days 6, 7, 8, 9, 10, 11, 12, 14, 18, and 21.

The target in the next experiment is JAK3 kinase (Homo sapiens (Human), UniProt P52333). As to the kind of experiment: Mass spectrometry for Janus-3 kinase (JAK3). The format is binding. The following applies: 3 hrs at 10× excess, tryptic digest. Here is the method:
JAK3 kinase (33 pmols; Invitrogen) was incubated with (I-7) (327 pmols) for 3 hrs at 10× excess prior to tryptic digestion. Iodoacetamide was used as the alkylating agent after compound incubation. For tryptic digests a 5 ul aliquot (5.5 pmols) was diluted with 15 ul of 0.1% TFA prior to micro C18 Zip Tipping directly onto the MALDI target using alpha cyano-4-hydroxy cinnamic acid as the matrix (5 mg/ml in 0.1% TFA:Acetonitrile 50:50).
As depicted in FIG. 11, the expected peptide ([…]) to be modified was immediately evident as the largest peak at MH+ of 1725.88. This is the mass to be expected when compound I-7, with an adduct mass of 345.16, is added to the peptide mass of 1380.70. […] There was also evidence for a number of other modified peptides, however, their signals were low.
To further verify the presence of the modified peptides with compound I-7, the peptides at MH+ of 1725.88 and 1118.55 were subjected to PSD (MS/MS) analysis. A correlational analysis with the homosapien database identified the correct peptides as being modified by I-7.
For tryptic digests the instrument was set in Reflectron mode with a pulsed extraction setting of 2200. Calibration was done using the Laser Biolabs Pep Mix standard ([…], 1296.69, 1672.92, 2093.09, 2465.20). […]

In experiment [3] the target is T1, BTK. As to the kind of experiment: BTK occupancy from in vitro samples by ELISA (Ramos cells). As to conditions: ELISA with probe I-215. In kind it is cell-based. Here is the method:
In order to determine the amount of free BTK in cell or tissue lysates, an ELISA protocol was employed that utilizes a biotinylated probe compound that binds only to free, unoccupied BTK. The conjugated biotin is captured on a streptavidin-coated ELISA plate and detected with a mouse anti-BTK antibody (Becton Dickinson, Franklin Lakes, N.J., USA) and a secondary goat anti-mouse HRP antibody (Zymed, South San Francisco, Calif., USA).
All samples were prepared with equal concentrations of Biorad lysis buffer (Hercules, Calif., USA), 0.5% bovine serum albumin in PBS with 0.05% Tween-20 to give a final concentration of 1 μM I-215. Samples were incubated in a mixing plate for 1 hr at room temperature while shaking to allow probe compound I-215 to bind to free BTK. After incubation with I-215, samples were added to a washed, streptavidin-coated ELISA plate (Pierce, Rockford, Ill., USA) and incubated for 1 hr at room temperature while shaking. The plate was then washed with PBS containing 0.05% Tween-20 using an automatic plate washer. Anti-BTK antibody was prepared at 1:1000 dilution in 0.5% BSA in PBS (0.05% Tween-20) and added to the ELISA plate. The plate was incubated for 1 hr at room temperature while shaking. The plate was washed as described above and the secondary HRP antibody was prepared at 1:5000 dilution in 0.5% BSA in PBS (0.05% Tween-20). The plate was incubated and washed as described above. TMB was added to the plate, and OD650 was monitored until reaching 1 OD unit. The reaction was then stopped with addition of H2SO4. The plate was analyzed using Gen 5 software, and a 4 Parameter Logistic curve was employed to quantitate samples. Recombinant BTK (Invitrogen, Carlsbad, Calif., USA) was used for the standard curve.
A concentration designated as “A” is greater than 1 nM; a concentration designated as “B” is greater than 10 nM; and a concentration designated as “C” is greater than 50 nM.
For orientation: An ELISA detects its analyte on a solid surface through an enzyme-linked reagent.

T1 sequence (Q06187 whole entry): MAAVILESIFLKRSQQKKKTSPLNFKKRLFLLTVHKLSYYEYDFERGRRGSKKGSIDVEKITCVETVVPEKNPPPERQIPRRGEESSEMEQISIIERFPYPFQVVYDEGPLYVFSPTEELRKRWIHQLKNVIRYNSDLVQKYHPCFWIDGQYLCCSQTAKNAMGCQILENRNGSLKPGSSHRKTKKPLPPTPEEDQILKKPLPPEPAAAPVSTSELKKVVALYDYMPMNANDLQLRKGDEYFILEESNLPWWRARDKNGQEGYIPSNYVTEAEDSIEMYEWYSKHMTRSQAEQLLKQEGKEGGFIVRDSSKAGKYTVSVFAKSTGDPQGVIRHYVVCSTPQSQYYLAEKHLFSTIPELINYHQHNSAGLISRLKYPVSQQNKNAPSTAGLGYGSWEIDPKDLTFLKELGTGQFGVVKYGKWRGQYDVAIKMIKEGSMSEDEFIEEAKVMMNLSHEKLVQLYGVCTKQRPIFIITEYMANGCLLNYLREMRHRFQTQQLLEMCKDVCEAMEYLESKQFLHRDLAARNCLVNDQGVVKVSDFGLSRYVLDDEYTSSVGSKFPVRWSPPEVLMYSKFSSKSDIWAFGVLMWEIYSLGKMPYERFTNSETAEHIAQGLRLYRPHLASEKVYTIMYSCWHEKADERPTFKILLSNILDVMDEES
JAK3 kinase, sequence (P52333 whole entry): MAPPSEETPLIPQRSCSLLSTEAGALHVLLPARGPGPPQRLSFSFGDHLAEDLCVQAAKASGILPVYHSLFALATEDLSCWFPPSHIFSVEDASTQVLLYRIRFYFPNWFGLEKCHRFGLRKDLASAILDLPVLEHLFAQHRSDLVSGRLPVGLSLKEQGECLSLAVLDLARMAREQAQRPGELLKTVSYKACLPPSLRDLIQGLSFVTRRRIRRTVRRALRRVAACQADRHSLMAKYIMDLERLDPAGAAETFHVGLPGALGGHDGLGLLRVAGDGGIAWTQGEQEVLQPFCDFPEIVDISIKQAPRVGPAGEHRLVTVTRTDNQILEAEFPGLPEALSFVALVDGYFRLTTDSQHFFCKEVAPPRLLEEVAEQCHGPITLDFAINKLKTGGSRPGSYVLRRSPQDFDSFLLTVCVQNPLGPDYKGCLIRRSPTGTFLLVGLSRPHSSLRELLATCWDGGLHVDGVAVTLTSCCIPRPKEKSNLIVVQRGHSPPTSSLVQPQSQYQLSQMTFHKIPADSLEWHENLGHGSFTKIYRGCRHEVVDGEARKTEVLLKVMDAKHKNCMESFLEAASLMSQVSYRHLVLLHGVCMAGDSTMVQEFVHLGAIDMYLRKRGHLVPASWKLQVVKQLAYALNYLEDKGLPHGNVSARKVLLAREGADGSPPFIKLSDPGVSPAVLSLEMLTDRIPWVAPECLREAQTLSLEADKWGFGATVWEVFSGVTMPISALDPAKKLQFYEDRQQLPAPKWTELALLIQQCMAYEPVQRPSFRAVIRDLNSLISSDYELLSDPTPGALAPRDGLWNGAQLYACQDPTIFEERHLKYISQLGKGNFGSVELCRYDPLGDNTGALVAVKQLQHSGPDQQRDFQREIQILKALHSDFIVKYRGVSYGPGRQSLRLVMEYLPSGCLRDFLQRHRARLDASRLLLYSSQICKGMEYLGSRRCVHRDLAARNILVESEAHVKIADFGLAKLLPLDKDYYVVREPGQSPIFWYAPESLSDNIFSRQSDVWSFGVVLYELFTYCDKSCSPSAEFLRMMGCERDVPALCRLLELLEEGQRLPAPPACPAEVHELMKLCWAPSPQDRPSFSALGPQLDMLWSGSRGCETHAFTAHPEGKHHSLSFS

For the compound `Cc1cccc(Nc2nc(Nc3cccc(NC(=O)/C=C/CN(C)C)c3)ncc2F)c1` [Compound I-4, (E)-4-(dimethylamino)-N-(3-(5-fluoro-4-(m-tolylamino)pyrimidin-2-ylamino)phenyl)but-2-enamide], the IC50 was less than 10 nM at BMX and 10 to 100 nM on BTK [1].
On to `C=CC(=O)Nc1cccc(Nc2nc(Nc3ccccc3)ncc2C)c1` [Compound I-7, N-(3-(5-methyl-2-(phenylamino)pyrimidin-4-ylamino)phenyl) acrylamide], for which the “% inhibition foot pad swelling” value in experiment [2] was 83%. The IC50 on BMX is less than 10 nM. Besides, the “covalent modification of JAK3 (Cys909, peptide LVMEYLPSGCLR) by mass spectrometry” value on JAK3 kinase is recorded as “not entirely complete; also recorded: covalent modification”. Also, on BTK [1], the IC50 was less than 10 nM. Also, at BTK [3], the “>50% occupancy (concentration at which >50% of BTK is occupied)” value was “A (greater than 1 nM)” and the “>90% occupancy (concentration at which >90% of BTK is occupied)” value is “B (greater than 10 nM)”.
